Source: PMC8525843 (Investigative Ophthalmology & Visual Science, 2021)

Tests used:
[1] = test system: hypertonic saline-induced ocular hypertensive NZW rabbits; assay: IOP-lowering effect in hypertonic saline-induced ocular hypertensive NZW rabbits; format: in vivo, rabbit; settings: 0.02%; at 1.5 hours; vs saline
patients = settings: clinical data; cited from earlier work
rabbit eyes = settings: after administration; cited from earlier work

For `Cc1ccc(C(=O)OCc2ccc([C@@H](CN)C(=O)Nc3ccc4cnccc4c3)cc2)c(C)c1` [AR-13324, netarsudil], which “Emax of IOP reduction” value [1] is on record?
The value was 12.1 ± 0.9 mm Hg.

With `C[C@H]1CNCCCN1S(=O)(=O)c1cccc2cncc(F)c12` [ripasudil, Ripasudil] as the compound, how does the “time for conjunctival hyperemia to resolve spontaneously” value (patients) read?
Its value is no more than 4 h.

Which “IOP of rabbit eyes” value (rabbit eyes) does the source give for `O=S(=O)(c1cccc2c(Cl)cccc12)N1CCCNCC1` [ML-9] here?
The value was “decreased in a dose-dependent manner”.
